Results: patent US20260240862A1, “COMBINATION OF ROGINOLISIB AND BCL-2 INHIBITOR IN THE TREATMENT OF HAEMATOLOGICAL MALIGNANCY” (IONCTURA SA, priority 2023, published 2026)

What was measured:
[1] = tested on: Granta519 (MCL); test: MTT antiproliferation assay, combination of Compound 1 and BCL-2 inhibitor, Chou-Talalay Combination Index; assay type: cell-based; settings: BCL-2 inhibitor in combination with Compound 1, 72 hours
Description: (§1) Venetoclax, S55746, S64315, and S63845, were used at a maximum concentration of 10 μM, following an eight fold dose response based on 1:4 compound dilutions plus an untreated control.
(§2) Cells were incubated for 72 hours at 37° C. and 5% CO2. The antiproliferative effect of single and combination treatments were determined by adding 20 μL MTT [3-(4,5-dimethylthiazolyl-2)-2, 5-diphenyltetrazoliumbromide]reagent (Sigma Aldrich, Buchs, Switzerland) to each well and the plates were incubated at 37° C. for 4 hours, followed by adding 50 μL of sodium dodecyl sulfate (SDS) (250 μM SDS, 0.21% fuming HCl) lysis buffer. The lysed cells were kept overnight, and then the absorbance was read at 570 nm using the Cytation 3 instrument (BioTek, Winoosku, VT, USA). […] The effect of the combinations was defined as strongly synergistic for CI values below <0.3, synergistic for CI values between 0.3 and 0.9, additive for CI values between 0.9 and 1.1, and antagonistic for CI values >1.1.

[2] = tested on: JVM2 (MCL); test: as above; assay type: cell-based; settings: BCL-2 inhibitor in combination with Compound 1, 72 hours
Description: as §1, §2

[3] = tested on: MJ (CTCL); test: as above; assay type: cell-based; settings: BCL-2 inhibitor in combination with Compound 1, 72 hours
Description: as §1, §2

[4] = tested on: TMD8 (DLBCL); test: as above; assay type: cell-based; settings: BCL-2 inhibitor in combination with Compound 1, 72 hours
Description: as §1, §2

[5] = tested on: MEC1 (CLL); test: as above; assay type: cell-based; settings: BCL-2 inhibitor in combination with Compound 1, 72 hours
Description: as §1, §2

[6] = tested on: SP49 (MCL); test: as above; assay type: cell-based; settings: BCL-2 inhibitor in combination with Compound 1, 72 hours
Description: as §1, §2

[7] = tested on: DNMT; settings: more than that of azacytidine (Zhang 2022); cited from earlier work

SMILES: Cc1c(-c2c(-c3ccc(F)o3)sc3ncnc(O[C@H](Cc4ccccc4OCc4ccnn4CC(F)(F)F)C(=O)O)c23)ccc(OCCN2CCN(C)CC2)c1Cl (atropisomer, axis not shown) [Compound S63845, (R)-2-((5-(3-chloro-2-methyl-4-(2-(4-methylpiperazin-1-yl)ethoxy)phenyl)-6-(5-fluorofuran-2-yl)thieno[2,3-d]pyrimidin-4-yl)oxy)-3-(2-((1-(2,2,2-trifluoroethyl)-1H-pyrazol-5-yl)methoxy)phenyl)propanoic acid]
- CI value (median) [1]: 0.47
- CI value (median) [2]: 0.33
- CI value (median) [3]: 0.67
- CI value (median) [4]: 0.86

SMILES: COc1ccccc1-c1nccc(COc2ccccc2C[C@@H](Oc2ncnc3sc(-c4ccc(F)cc4)c(-c4ccc(OCCN5CCN(C)CC5)c(Cl)c4C)c23)C(=O)O)n1 (atropisomer, axis not shown) [Compound S64315, (R)-2-((5-(3-chloro-2-methyl-4-(2-(4-methylpiperazin-1-yl)ethoxy)phenyl)-6-(4-fluorophenyl)thieno[2,3-d]pyrimidin-4-yl)oxy)-3-(2-((2-(2-methoxyphenyl)pyrimidin-4-yl)methoxy)phenyl)propanoic acid]
- CI value (median) [2]: 0.24
- CI value (median) [5]: 0.88
- CI value (median) [6]: 0.71
- CI value (median) [4]: 0.23

SMILES: O=C(c1cc(-c2cc3c(cc2C(=O)N2Cc4ccccc4C[C@H]2CN2CCOCC2)OCO3)n2c1CCCC2)N(c1ccccc1)c1ccc(O)cc1 [Compound S55746, (S)—N-(4-hydroxyphenyl)-3-(6-(3-(morpholinomethyl)-1,2,3,4-tetrahydroisoquinoline-2-carbonyl)benzo[d][1,3]dioxol-5-yl)-N-phenyl-5,6,7,8-tetrahydroindolizine-1-carboxamide]
- CI value (median) [2]: 0.46
- CI value (median) [5]: 0.21
- CI value (median) [4]: 0.4

SMILES: Nc1ncn([C@H]2C[C@H](O)[C@@H](CO)O2)c(=O)n1 [Decitabine, 5-aza-2′-deoxycytidine]
- inhibitory activity of DNMT relative to azacytidine [7]: 30 times

SMILES: CC1(C)CCC(CN2CCN(c3ccc(C(=O)NS(=O)(=O)c4ccc(NCC5CCOCC5)c([N+](=O)[O-])c4)c(Oc4cnc5[nH]ccc5c4)c3)CC2)=C(c2ccc(Cl)cc2)C1 [Venetoclax, 4-(4-{[2-(4-Chlorophenyl)-4,4-dimethyl-1-cyclohexen-1-yl]methyl}-1-piperazinyl)-N-({3-nitro-4-[(tetrahydro-2H-pyran-4-ylmethyl)amino]phenyl}sulfonyl)-2-(1H-pyrrolo[2,3-b]pyridin-5-yloxy)benzamide]
- CI value (median) [1]: 0.81
- CI value (median) [2]: 0.15
- CI value (median) [5]: 0.05
- CI value (median) [3]: 0.47
